Experimental data reported in article PMC7756445, “A Novel Prodrug of a nNOS Inhibitor with Improved Pharmacokinetic Potential” (Chemmedchem, 2020).

Assays:
Experiment in all cases: NOS inhibition, L-Arg to L-Cit conversion by HPLC with fluorescence detection
Assay type in all cases: biochemical
bovine eNOS = biological target: T1, bovine eNOS (Bos taurus, UniProt P29473); details: at 10 μM
T1 construct: purchased Cayman Chemicals (Ann Arbor, Michigan, USA)
Procedure: (§1) The amidoxime 2 was evaluated for its in vitro NOS inhibitory activity, by measuring the conversion of L‐Arg to L‐Cit, using a validated HPLC method with fluorescence detection, as previously reported.[ ^39 , ^40 , ^41 ] The human nNOS and iNOS inhibition percent were calculated at 1 μM, while bovine eNOS inhibition was evaluated at 10 μM in order to have an assessment of compound selectivity toward eNOS. Considering the highly conserved primary sequence (>90 %) between the human and bovine eNOS, this latter extremely resembles the human isozyme. In particular, there is only one amino acid variation in a hydrophobic pocket that is on the outside of the heme active site. Therefore the different source of eNOS is usually well accepted and should not affect the inhibitor evaluation. ^[42]
(§2) Recombinant human iNOS and nNOS, were purchased from Enzo Life Sciences, Inc. (New York, USA), while bovine recombinant eNOS was purchased from Cayman Chemicals (Ann Arbor, Michigan, USA). HPLC analyses were performed using a Waters system composed of a P600 model pump, a 2475 multi‐fluorescence detector, and a 7725i model sample injector (Rheodyne, Cotati, CA, USA) equipped with a 5 μL loop. The column was a XTerra MS C8 (250×4.6 mm i.d., […]; Waters). A column thermostat oven module Igloo‐Cil (Cil Cluzeau Info Labo, France) was used. Chromatograms were recorded on a Fujitsu Siemens Esprimo computer and data were processed by the Empower Pro software (Waters). The appropriate mobile phase was prepared daily, filtered through a 0.45 μm WTP membrane (Whatman, Maidstone, UK), sonicated and degassed before use. Column temperature was kept constant at 20 °C. All assays were performed in triplicate.
(§3) Enzymes were diluted in 2‐[4‐(2‐hydroxyethyl)piperazin‐1‐yl]ethanesulfonic acid (HEPES) buffer (pH 7.4) to obtain iNOS and nNOS 2.5 μg/mL stock solutions, and eNOS 300 μg/mL stock solution. To measure iNOS activity, 10 μL of iNOS stock solution were added to 80 μL of HEPES buffer at pH 7.4, containing 0.1 mM CaCl2, 1 mM D,L‐dithiothreitol (DTT), 0.5 mg/mL bovine serum albumin (BSA), 10 μM flavin mononucleotide (FMN), 10 μM flavin adenine dinucleotide (FAD), 30 μM tetrahydrobiopterin (BH4), 10 μg/mL calmodulin (CaM) and 10 μM L‐Arg. To measure eNOS and nNOS activities, 25 μL of enzyme stock solution were added to 75 μL of HEPES buffer pH 7.4, containing 2 mM CaCl2, 1 mM DTT, 0.5 mg/mL BSA, 10 μM FMN, 10 μM FAD, 30 μM BH4, 10 μg/mL CaM and 10 μM L‐Arg. Then, 10 μL of a 10 μM (iNOS and nNOS assay) or 100 μM (eNOS assay) solution of the test compound was added to the enzyme assay solution, followed by pre‐incubation of 15 min at 37 °C. The reaction was initiated by the addition of 10 μL of nicotinamide adenine dinucleotide phosphate (NADPH) 7.5 mM (iNOS) or 10 mM (eNOS and nNOS), carried out at 37 °C for 20 min, and stopped by adding 500 μL of ice‐cold CH3CN. The mixture was brought to dryness under vacuum and eventually stored at −20 °C, before the fluorescence derivatization. The o‐phthalaldehyde‐N‐acetylcysteine (OPA/NAC) reagent for fluorescence derivatization was prepared with the molar ratios of 1 : 3, reacting 5 mL of methanolic OPA solution and 20 mL of 0.2 M borate buffer containing 0.1 g of NAC for 90 min to final pH 9.3±0.05. The OPA/NAC solution was stored at 4 °C and saved for no longer than seven days. […] The fluorescence reaction is realized stirring 190 μL of supernatant and 60 μL of OPA/NAC solution for 5 min. […]

human iNOS = biological target: T2, human iNOS (Homo sapiens, UniProt P35228); details: at 1 μM
T2 construct: purchased Enzo Life Sciences, Inc. (New York, USA)
Procedure: as §1, §2, §3

human nNOS = biological target: T3, human nNOS (Homo sapiens, UniProt P29475); details: read-out: nNOS enzymatic inhibition
T3 construct: purchased Enzo Life Sciences, Inc. (New York, USA)
Procedure: as §1, §2, §3

C/C(=N\O)NC(c1ccccc1)c1ccccc1 [Compound 2, (1E)‐N‐(diphenylmethyl)‐N′‐hydroxyethanimidamide]
eNOS inhibition (in words) (bovine eNOS): not able to inhibit | eNOS inhibition (in words) (bovine eNOS; listed as amidoxime): inactivity | iNOS inhibition (in words) (human iNOS): not able to inhibit | iNOS inhibition (in words) (human iNOS; listed as amidoxime): inactivity | inhibition at 1 µM (human nNOS): 53%
